Assay results as given in ChEMBL document CHEMBL5550185, “Targeting hTERT Promoter G-Quadruplex DNA Structures with Small-Molecule Ligand to Downregulate hTERT Expression for Triple-Negative Breast Cancer Therapy” (J Med Chem, 2024).
Activity calls are given as the source filed them. The rule behind the calls is not given here.

Key:
[1] = test system: Quadruplex DNA; assay: Binding affinity to human TERT G4 DNA assessed as adduct formation by measuring appearance of new peak at 5 uM by ultraviolet spectrophotometric titration method; assay type: nucleic-acid assay
[2] = test system: MDA-MB-231; assay: Antitumor activity against human MDA-MB-231 cells xenografted in female Balb/c mouse assessed as reduction in tumor weight at 5 mg/kg, iv administered via tail vein every 2 days for 16 days relative to control; assay type: functional; set-up: scale not given: the % may be the effect or the level left; conditions: time 16 day
[3] = test system: Quadruplex DNA; assay: Binding affinity to CKIT-2 G4 DNA (unknown origin) assessed as change in gibbs free energy at 400 uM by ITC analysis; assay type: nucleic-acid assay
[4] = test system: DNA; assay: Binding affinity to Ds26 duplex DNA (unknown origin) assessed as thermal stability by measuring change in melting temperature at 400 uM […]; assay type: nucleic-acid assay
[5] = test system: MDA-MB-231; assay: Induction of ferroptosis in human MDA-MB-231 cells assessed as increase in ROS production measured after 48 hrs by Hoechst 33342 staining based confocal microscopic analysis; assay type: functional, cell-based; conditions: dose 0-1.5 µM
[6] = Upregulation of HLA-F gene expression in human MDA-MB-231 cells assessed as fold change at 1 uM measured after 48 hrs by RNA-seq analysis relative to control; assay type: functional
[7] = species: Homo sapiens; assay: Selectivity ratio of binding affinity to human TERT G4 DNA to binding affinity to antisense i-hTERT DNA
[8] = test system: MDA-MB-231; assay: Downregulation of ND5 gene expression in human MDA-MB-231 cells at 1 uM measured after 48 hrs by RNA-seq analysis; assay type: functional, cell-based
[9] = test system: MDA-MB-231; assay: Disruption of energy metabolism in human MDA-MB-231 cells assessed as reduction in cellular energy production by measuring reduction in oxygen consumption rate at 1.5 uM measured after 2 hrs by Seahorse XF24 analyzer; assay type: functional, cell-based
[10] = Upregulation of CCND2 gene expression in human MDA-MB-231 cells assessed as fold change at 1 uM measured after 48 hrs by RNA-seq analysis relative to control; assay type: functional
[11] = Cytotoxicity against human HK-2 cells assessed as inhibition of cell growth incubated for 48 hrs by MTT assay; assay type: toxicity, cell-based
[12] = Toxicity in female Balb/c nude mouse xenografted with human MDA-MB-231 cells assessed as change in mean corpuscular hemoglobin at 2 to 5 mg/kg, iv administered via tail vein every 2 days for 16 days; assay type: organism-based; conditions: in vivo, 384 h, dose 2-5 mg/kg, time 16 day
[13] = Upregulation of NFATC4 gene expression in human MDA-MB-231 cells assessed as fold change at 1 uM measured after 48 hrs by RNA-seq analysis relative to control; assay type: functional
[14] = test system: MDA-MB-231; assay: Downregulation of ND2 gene expression in human MDA-MB-231 cells at 1 uM measured after 48 hrs by RNA-seq analysis; assay type: functional, cell-based
[15] = test system: MDA-MB-231; assay: Induction of mitochondrial dysfunction in human MDA-MB-231 cells assessed as downregulation of mitochondrial respiratory complex II-SDHB expression incubated for 48 hrs by Western blot analysis; assay type: functional, cell-based; conditions: dose 0-1.5 µM
[16] = test system: MDA-MB-231; assay: Downregulation of LC3-I protein expression in human MDA-MB-231 cells at 0 to 1.5 uM measured after 48 hrs by Western blot analysis; assay type: functional, cell-based; conditions: dose 0-1.5 µM
[17] = test system: Quadruplex DNA; assay: Binding affinity to CKIT-2 G4 DNA (unknown origin) assessed as change in enthalpy at 400 uM by ITC analysis; assay type: nucleic-acid assay
[18] = Toxicity in female Balb/c nude mouse xenografted with human MDA-MB-231 cells assessed as change in WBC count at 2 to 5 mg/kg, iv administered via tail vein every 2 days for 16 days; assay type: organism-based; conditions: in vivo, 384 h, dose 2-5 mg/kg, time 16 day
[19] = test system: DNA; assay: Binding affinity to Ds26 duplex DNA (unknown origin) assessed as change in enthalpy at 400 uM by ITC analysis; assay type: nucleic-acid assay
[20] = Toxicity in female Balb/c nude mouse xenografted with human MDA-MB-231 cells assessed as pathological changes in lung at 2 to 5 mg/kg, iv administered via tail vein every 2 days for 16 days by H and E staining based analysis; assay type: organism-based; conditions: in vivo, 384 h, dose 2-5 mg/kg, time 16 day
[21] = Selectivity ratio of binding affinity to human TERT G4 DNA to binding affinity to Dt21 ssDNA (unknown origin)
[22] = Toxicity in female Balb/c nude mouse xenografted with human MDA-MB-231 cells assessed as change in AST level at 2 to 5 mg/kg, iv administered via tail vein every 2 days for 16 days; assay type: organism-based; conditions: in vivo, 384 h, dose 2-5 mg/kg, time 16 day
[23] = test system: MDA-MB-231; assay: Induction of oxidative stress in human MDA-MB-231 cells assessed as cellular DNA fragmentation at 0 to 1.5 uM measured after 48 hrs by comet assay; assay type: functional, cell-based; conditions: dose 0-1.5 µM
[24] = Upregulation of HLA-B gene expression in human MDA-MB-231 cells assessed as fold change at 1 uM measured after 48 hrs by RNA-seq analysis relative to control; assay type: functional
[25] = Toxicity in female Balb/c nude mouse xenografted with human MDA-MB-231 cells assessed as signs of skin tear at 2 to 5 mg/kg, iv administered via tail vein every 2 days for 16 days; assay type: organism-based; conditions: in vivo, 384 h, dose 2-5 mg/kg, time 16 day
[26] = Upregulation of HLA-E gene expression in human MDA-MB-231 cells assessed as fold change at 1 uM measured after 48 hrs by RNA-seq analysis relative to control; assay type: functional
[27] = Upregulation of SAT1 gene expression in human MDA-MB-231 cells assessed as fold change at 1 uM measured after 48 hrs by RNA-seq analysis relative to control; assay type: functional
[28] = test system: MDA-MB-231; assay: Induction of cell cycle arrest in human MDA-MB-231 cells assessed as accumulation of cells at S phase at 0.5 to 1.5 uM measured after 48 hrs by 7-aminoactinomycin D/RNase staining based flow cytometry analysis (reference value: 23.4%); assay type: functional; conditions: dose 0.5-1.5 µM
[29] = test system: MDA-MB-231; assay: Downregulation of p62 protein expression in human MDA-MB-231 cells at 0 to 1.5 uM measured after 48 hrs by Western blot analysis; assay type: functional, cell-based; conditions: dose 0-1.5 µM
[30] = test system: MDA-MB-231; assay: Inhibition of TRF2 protein expression in human MDA-MB-231 cells measured after 48 hrs by Western blot analysis; assay type: functional, cell-based; conditions: dose 0-1.5 µM
[31] = Selectivity ratio of binding affinity to human TERT G4 DNA to binding affinity to Pu27 G4 DNA (unknown origin)
[32] = Toxicity in female Balb/c nude mouse xenografted with human MDA-MB-231 cells assessed as change in platelet count at 2 to 5 mg/kg, iv administered via tail vein every 2 days for 16 days; assay type: organism-based; conditions: in vivo, 384 h, dose 2-5 mg/kg, time 16 day
[33] = test system: MDA-MB-231; assay: Inhibition of hTERT expression in human MDA-MB-231 cells assessed as reduction in pink foci in cytoplasm at 0.5 uM incubated for 48 hrs in presence of TBHP at 200 uM by immunofluorescence analysis; assay type: functional, cell-based
[34] = test system: Quadruplex DNA; assay: Binding affinity to c-MYC Pu27 G4 DNA (unknown origin) assessed as change in gibbs free energy at 400 uM by ITC analysis; assay type: nucleic-acid assay
[35] = test system: MDA-MB-231; assay: Induction of DNA damage in human MDA-MB-231 cells assessed as upregulation of gamma-H2AX protein expression measured after 48 hrs by Western blot analysis; assay type: functional, cell-based; conditions: dose 0-1.5 µM
[36] = Selectivity ratio of binding affinity to human TERT G4 DNA to binding affinity to RET G4 DNA (unknown origin)
[37] = test system: Quadruplex DNA; assay: Binding affinity to c-MYC Pu27 G4 DNA (unknown origin) assessed as thermal stability by measuring change in melting temperature at 400 uM […]; assay type: nucleic-acid assay

With `C[n+]1c(/C=C/c2c[nH]c3ccccc23)cc(/C=C2\Sc3ccccc3N2CCCN2CCC(C(F)(F)F)CC2)c2ccccc21.[I-]` as the molecule, how does the Activity [1] read?
The Activity was “Active”.

And the Activity [2]?
The Activity was 78.7%.

What about the deltaG [3] of the same molecule?
The deltaG was -7.05 kcal/mol.

What about the ΔTm [4] of the same molecule?
Its ΔTm is 1.01 °C.

And the Activity [5]?
Its Activity is “Dose-Dependent Effect”.

And the “fold change (FC)” value [6]?
Its value is >2.

What about the Selectivity ratio [7] of the same molecule?
Its Selectivity ratio is 3.

What about the Activity [8] of the same molecule?
The Activity was “Active”.

And the Activity [9]?
Its Activity is “Active”.

What about the “fold change (FC)” value [10] of the same molecule?
Its value is >2.

And the IC50 at 48 h [11]?
Its IC50 at 48 h is 9.4 µM.

What about the Activity [12] of the same molecule?
Its Activity is “Non-Toxic”.

And the “fold change (FC)” value [13]?
The value was >2.

What about the Activity [14] of the same molecule?
Its Activity is “Active”.

And the Activity [15]?
The Activity was “Dose-Dependent Effect”.

And the Activity [16]?
The Activity was “Active”.

And the deltaH [17]?
The deltaH was -1.59 kcal/mol.

What about the Activity [18] of the same molecule?
The Activity was “Non-Toxic”.

And the deltaH [19]?
Its deltaH is -1.32 kcal/mol.

What about the Activity [20] of the same molecule?
Its Activity is “Non-Toxic”.

What about the Selectivity ratio [21] of the same molecule?
The Selectivity ratio was 18.

What about the Activity [22] of the same molecule?
The Activity was “Non-Toxic”.

What about the Activity [23] of the same molecule?
The Activity was “Active”.

What about the “fold change (FC)” value [24] of the same molecule?
The value was >2.

What about the Activity [25] of the same molecule?
The Activity was “Non-Toxic”.

What about the “fold change (FC)” value [26] of the same molecule?
The value was >2.

What about the “fold change (FC)” value [27] of the same molecule?
Its value is >2.

What about the Activity [28] of the same molecule?
The Activity was 4.6%.

And the Activity [29]?
The Activity was “Active”.

What about the inhibition [30] of the same molecule?
Its inhibition is “Dose-Dependent Effect”.

And the Selectivity ratio [31]?
Its Selectivity ratio is 2.

What about the Activity [32] of the same molecule?
Its Activity is “Non-Toxic”.

What about the inhibition [33] of the same molecule?
Its inhibition is “Active”.

And the deltaG [34]?
Its deltaG is -6.59 kcal/mol.

What about the Activity [35] of the same molecule?
The Activity was “Dose-Dependent Effect”.

What about the Selectivity ratio [36] of the same molecule?
The Selectivity ratio was 2.

And the ΔTm [37]?
Its ΔTm is 2.59 °C.
